Converted amounts (≈) assume the structure as drawn. Where two headings read alike, the source gives them in different places.
Experiments:
[1] = system: B. subtilis DSM-10; experiment: Antimicrobial assay, MIC by microbroth dilution; assay type: cell-based; conditions: Bacillus subtilis, DSM10; 16 h, cation-adjusted Muller-Hinton broth
Protocol: (§1) Bacterial strains used in susceptibility assays (minimum inhibitory concentrations, MIC) were either part of our internal strain collection or were purchased form the German Collection of Microorganisms and Cell Cultures (DSMZ). All compounds were prepared as DMSO stocks and MIC values were determined in standard microbroth dilution assays. Overnight cultures of bacteria were diluted in cation-adjusted Muller-Hinton broth (BBL™, BD) and were adjusted to approximately 10^5 cfu/mL. […] Bacteria were grown in the presence of the derivatives in serial dilution for 16 h at their optimal growth temperature. MIC values were determined according to CLSI guidelines (antibiotic concentration at which no visible bacterial growth is observed).

[2] = system: S. aureus Newman; experiment: Antimicrobial assay, MIC by microbroth dilution; assay type: cell-based; conditions: Staphylococcus aureus, NEWMAN; 16 h, cation-adjusted Muller-Hinton broth
Protocol: as §1

[3] = system: C. glutamicum DSM-20300; experiment: Antimicrobial assay, MIC by microbroth dilution; assay type: cell-based; conditions: Corynebacterium glutamicum, DSM20300; 16 h, cation-adjusted Muller-Hinton broth
Protocol: as §1

[4] = system: P. falciparum 3D7 (sensitive strain); experiment: Antiplasmodial in vitro drug sensitivity assay (HRP2-ELISA); assay type: cell-based; conditions: Plasmodium falciparum, P. falciparum 3D7 (sensitive strain), read-out: IC50 against P. falciparum 3D7
Protocol: (§2) Two laboratory strains of P. falciparum, the chloroquine sensitive 3D7 and the multi-resistant Dd2 were kept in continuous culture as previously described (Trager and Jensen 1976). In brief, parasites were kept in complete culture medium (RPMI 1640, 25 mM HEPES, 2 mM L-glutamine, 50 μg/ml gentamicin and 0.5% w/v AlbuMAX) at 37° C., 5% CO2 and 5% oxygen at 5% hematocrit with daily change of medium. Synchronization was performed with sorbitol twice a week (Lambros and Vanderberg 1979).
(§3) In Vitro Drug Sensitivity Assay
(§4) All compounds were dissolved in DMSO at stock dilutions between 25 and 100 mM; the reference drug chloroquine diphosphate (MW: 515.86) was diluted in distilled water and DMSO, respectively. […] Antiplasmodial activity of the different compounds was tested in a drug sensitivity assay against the two laboratory strains using the histidine-rich protein 2 (HRP2) assay as described previously (Noedl 2005). In brief: 96 well plates were pre-coated with the different compounds in a threefold dilution before ring stage parasites were added in complete culture medium at a hematocrit of 1.5% and a parasitemia of 0.05% in a total volume of 225 μl per well. After three days of incubation plates were frozen until analyzed by HRP2-ELISA. All compounds were evaluated in duplicate in at least two independent experiments.

[5] = system: P. falciparum Dd2 (resistant strain); experiment: as above; assay type: cell-based; conditions: Plasmodium falciparum, P. falciparum Dd2 (resistant strain), read-out: IC50 against P. falciparum Dd2
Protocol: as §2, §3, §4

[6] = system: L-929 (murine fibroblasts); experiment: Cytotoxicity assay (MTT, 5 d); assay type: cell-based; conditions: Mus musculus, L929, 120 h
Protocol: Cytotoxicity Assay The murine fibroblast cell line L-929 was obtained from the German Collection of Microorganisms and Cell Cultures (DSMZ) and maintained under conditions recommended by the depositor. Cells were seeded at 6×10^3 cells per well of sterile 96-well plates in 180 μL complete medium and treated with the compounds in serial dilution after 2 h of equilibration. After 5 d, viability was assessed by the MTT method. After 1.5 h incubation with 0.5 mg/mL MTT reagent, cells were washed with PBS and 100 μL of 2-propanol/10 N HCl (250:1) was added. The absorbance at 570 nm was determined on a microplate reader and cell viability was expressed as percentage relative to the respective solvent control. Half-inhibitory concentrations (IC50) were determined by sigmoidal curve fitting.

[7] = system: E. coli TolC (+PMBN); experiment: Antimicrobial assay, MIC by microbroth dilution with PMBN; assay type: cell-based; conditions: 16 h, 3 μg/mL polymyxin B nonapeptide (PMBN) added
Protocol: Bacterial strains used in susceptibility assays (minimum inhibitory concentrations, MIC) were either part of our internal strain collection or were purchased form the German Collection of Microorganisms and Cell Cultures (DSMZ). All compounds were prepared as DMSO stocks and MIC values were determined in standard microbroth dilution assays. Overnight cultures of bacteria were diluted in cation-adjusted Muller-Hinton broth (BBL™, BD) and were adjusted to approximately 10^5 cfu/mL. For the E. coli culture, 3 μg/mL of polymyxin B nonapeptide (PMBN) was added to increase permeability of the outer membrane as chlorotonils were previously shown to not penetrate into Gram-negative cells. Bacteria were grown in the presence of the derivatives in serial dilution for 16 h at their optimal growth temperature. MIC values were determined according to CLSI guidelines (antibiotic concentration at which no visible bacterial growth is observed).

[8] = Determination of water solubility, Method 2 (HPLC-MS standard curve, saturated solution in water); assay type: physicochemical; conditions: for solubility: thermodynamic from solid, saturated solution in water, HPLC-MS standard curve
Protocol: (§5) Determination of Water Solubility
A standard curve with 10 calibration points of the compound of interest is plotted using HPLC-MS and serial dilution. The dilutions and stock solutions were prepared in THF as a solvent. Following the measurements, a saturated solution in water of the compound in study was also measured. Upon plotting the standard curve using the peak areas of the MS peaks, the water samples were plotted along the curve and the solubility was then calculated.

[9] = Determination of water solubility, Method 1 (suspension in tap water, weighing); assay type: physicochemical; conditions: thermodynamic from solid, room temperature, 18 h stirring, triplicates
Protocol: as §5
10 mg of compound was suspended in 1 L of tap water and the solution was stirred at room temperature for 18 h. Upon completion, solution was sonicated for another hour, centrifuged and the supernatant was separated from the precipitate. Both aliquots were lyophilized, and weighed. This procedure was performed in triplicates.

[10] = system: zebrafish larvae of the TLF wild type line; experiment: Zebrafish embryo toxicity, maximum tolerated concentration (MTC), TLF line; assay type: in vivo; conditions: at five dpf, incubation started at one dpf
Protocol: (§6) Zebrafish Embryo Toxicity
(§7) The maximum tolerated concentration (MTC) was determined on zebrafish larvae of the AB wildtype line and the TLF wild type line. Larvae were placed into a 96-well plate (one larva per well) and incubated in a solution at different concentrations (100, 50, 25, 10, 1 μM) of ChA, ChA-Epo2, ChB or ChB-Epo at two days post fertilization (dpf) for AB and in a solution at different concentrations of ChA (100, 50 μM) ChA-Epo2 (25, 10, 1 μM), ChB (100, 50 μM) or ChB-Epo (100, 50, 25 μM) at one dpf for TLF. Five zebrafish larvae were used per condition. The incubated embryos were kept in compound solutions at 28° C. until five dpf and monitored daily by microscopy. The final MTC result was recorded at five dpf. Compound solutions were prepared in the larvae medium Danieau's. Additionally a solution of 0.5% DMSO in Danieau's was used as vehicle control and Danieau's alone as a negative control.

[11] = system: Gram-positive bacteria; experiment: Antimicrobial assay, MIC against a range of Gram-positive bacteria (Table 5); assay type: cell-based; conditions: read-out: MIC
Protocol: as §1

[12] = system: zebrafish larvae of the AB wildtype line; experiment: Zebrafish embryo toxicity, maximum tolerated concentration (MTC), AB line; assay type: in vivo
Protocol: as §6, §7

Row | SMILES | MIC [1] | MIC [2] | MIC [3] | IC50 [4] | IC50 [5] | IC50 [6] | MIC E. coli TolC (+PMBN) [7] | also measured
1 | C[C@@H]1C(=O)O[C@@H](C)/C=C/C=C\[C@@H](C)[C@@H]2C=C[C@]3(C)C[C@]4(C)O[C@@H]4[C@@H](C)[C@H]3[C@@H]2C(=O)C(Cl)(Cl)C1=O [ChA-Epo1] | 3.2 µg/mL (≈ 6.28 µM) | 3.2 µg/mL (≈ 6.28 µM) | > 3.2 µg/mL | 0.0965 µM | 0.229 µM | 10300 nM | >3.2 µg/mL | 
2 | C[C@@H]1C(=O)O[C@@H](C)/C=C/C=C\[C@@H](C)[C@@H]2C=C[C@@H]3C[C@@](C)(O)[C@H](Br)[C@@H](C)[C@H]3[C@@H]2C(=O)C(Cl)(Cl)C1=O [ChA-Epo2-Br] | 0.05 µg/mL (≈ 0.0868 µM) | 0.05 µg/mL (≈ 0.0868 µM) | 0.1 µg/mL (≈ 0.174 µM) | 0.0251 µM | 0.0644 µM | 1100 nM | 0.2 µg/mL | 
3 | C[C@@H]1C(=O)O[C@@H](C)/C=C/C=C\[C@@H](C)[C@@H]2C=C[C@@H]3C[C@@](C)(O)[C@H](Cl)[C@@H](C)[C@H]3[C@@H]2C(=O)C(Cl)(Cl)C1=O [ChA-Epo2-Cl] | 0.1 µg/mL (≈ 0.188 µM) | 0.05 µg/mL (≈ 0.094 µM) | 0.4 µg/mL (≈ 0.752 µM) | 0.0387 µM | 0.0459 µM | 4200 nM | 0.8 µg/mL | solubility [8]: 320 µg/mL (≈ 602 µM); solubility at 18 h [9]: 280 µg/mL (≈ 526 µM)
4 | CCCCO[C@@H]1[C@@H](C)[C@H]2[C@@H]3C(=O)C(Cl)(Cl)C(=O)[C@H](C)C(=O)O[C@@H](C)/C=C/C=C\[C@@H](C)[C@@H]3C=C[C@@H]2C[C@@]1(C)O [ChA-Epo2-OBu] | 0.8 µg/mL (≈ 1.4 µM) | 1.6 µg/mL (≈ 2.81 µM) | > 3.2 µg/mL |  |  | 49400 nM | >3.2 µg/mL | IC50 ([4]; μM): > 11 µM; IC50 ([5]; μM): > 11 µM
5 | C[C@@H]1C(=O)O[C@@H](C)/C=C/C=C\[C@@H](C)[C@@H]2C=C[C@@H]3C[C@@](C)(O)[C@H](O[N+](=O)[O-])[C@@H](C)[C@H]3[C@@H]2C(=O)C(Cl)(Cl)C1=O [ChA-Epo2-ONO2] | 0.025 µg/mL (≈ 0.0448 µM) | 0.025 µg/mL (≈ 0.0448 µM) | 0.1 µg/mL (≈ 0.179 µM) | 0.00092 µM | 0.0022 µM |  | 0.1 µg/mL | solubility [8]: 380 µg/mL (≈ 680 µM); solubility at 18 h [9]: 310 µg/mL (≈ 555 µM)
6 | CC(C)CCO[C@@H]1[C@@H](C)[C@H]2[C@@H]3C(=O)C(Cl)(Cl)C(=O)[C@H](C)C(=O)O[C@@H](C)/C=C/C=C\[C@@H](C)[C@@H]3C=C[C@@H]2C[C@@]1(C)O [ChA-Epo2-Oisoamyl] | 0.8 µg/mL (≈ 1.37 µM) | 1.6 µg/mL (≈ 2.74 µM) | 3.2 µg/mL (≈ 5.48 µM) |  |  | 44700 nM | 0.8 µg/mL | IC50 ([4]; μM): > 11 µM; IC50 ([5]; μM): > 11 µM
7 | C[C@@H]1C(=O)O[C@@H](C)/C=C/C=C\[C@@H](C)[C@@H]2C=C[C@@H]3C[C@@]4(C)O[C@H]4[C@@H](C)C3C2/C(O)=C(\Cl)C1=O (stereo partly drawn) [ChB-Epo] |  | 0.05 µg/mL (≈ 0.108 µM) |  | 0.158 µM | 0.182 µM |  |  | Observations noted on fish larvae ([10]; 50 μM): slight tail malformation; Observations noted on fish larvae ([10]; 100 μM): tail malformation; MTC (maximum tolerated concentration) [10]: 25 µM; MIC ([11]; Enterococcus faecalis, E. faecalis 20478): 3.2 µg/mL (≈ 6.94 µM); MIC ([11]; Enterococcus faecalis, E. faecalis 29212): > 3.2 µg/mL; MIC ([11]; Enterococcus faecium, E. faecium 20477): > 3.2 µg/mL; MIC ([11]; Enterococcus faecium, VRE, E. faecium 17050 (VRE)): 3.2 µg/mL (≈ 6.94 µM); MIC ([11]; Micrococcus luteus, M. luteus): 0.1 µg/mL (≈ 0.217 µM); MIC ([11]; Mycolicibacterium smegmatis, M. smegmatis): > 3.2 µg/mL; MIC ([11]; Priestia megaterium, B. megaterium): 0.05 µg/mL (≈ 0.108 µM); MIC ([11]; Staphylococcus epidermidis, S. epidermidis 28765): 0.8 µg/mL (≈ 1.74 µM); MIC ([11]; Streptococcus pneumoniae, PRSP, S. pneumoniae 11865 (PRSP)): > 32 µg/mL; MIC ([11]; Streptococcus pneumoniae, S. pneumoniae 20566): 0.8 µg/mL (≈ 1.74 µM); Observations noted on fish larvae ([12]; 50 μM, AB line, at five dpf, incubation started at two dpf): died; Observations noted on fish larvae ([12]; 100 μM, AB line, at five dpf, incubation started at two dpf): died; MTC (maximum tolerated concentration) ([12]; AB line, at five dpf, incubation started at two dpf): 25 µM; Toxicity in zebrafish (MTC), comparison of the epoxide derivatives ([12]; zebrafish, line not named in the sentence (Tables 6 and 7)): less toxic than the chlorotonil A derivative
8 | CC1=C[C@@H](C)[C@H]2[C@@H]3C(=O)C(Cl)(Cl)C(=O)[C@H](C)C(=O)O[C@@H](C)/C=C/C=C\[C@@H](C)[C@@H]3C=C[C@@H]2C1 [Chlorotonil A (ChA), Chlorotonil A, reference compound] |  |  |  |  |  |  |  | water solubility ([8]; summary of Table 1, method not given): less than 2 μg/mL

From patent US11365201B2, “Chlorotonil derivatives” (HELMHOLTZ-ZENTRUM FÜR INFEKTIONSFORSCHUNG GMBH, priority 2017, dated 2022)
